# Laboratory results reported in patent publication US20130230586A1, “Treatment of Tinnitus and Related Auditory Dysfunctions” (LINK RESEARCH & GRANTS CORPORATION, priority 2010, published 2013).
# Key:
# [1] = 10 to 40 mg over a 12 week period; 120 fibromyalgia patients; cited from earlier work
# [2] = Description: In the initial tests as reported in PCT/IB2010/051373 tablets were administered three times daily.
# Four selected outcome variables were used in this preliminary analysis: Global improvement (GI), Tinnitus Handicap Inventory (THI) and Tinnitus Impairment Questionnaire (TBF 12) questionnaires and Minimum Masking Levels (MML). The changes on the outcome variables were obtained by subtracting week 12's scores from the screening scores. The presence of a negative result means a decrease on values.
# In Table 2 the changes on outcome variables are listed by Global Improvement (GI) classification, as follows: GI 1=much better; 2=better; 3=slightly better; 4=no change; 5=slightly worse; 6=worse; 7=much worse; THI: Tinnitus Handicap Inventory, TBF 12: Tinnitus Impairment Questionnaire; MML: minimal masking levels, measured in dB HL (Hearing Level).
# Four different criteria were established to determine whether a subject responded or not to treatment (see Table 3).
smiles,measurement,setting,value
CN(C)CCC=C1c2ccccc2C=Cc2ccccc21 [Cyclobenzaprine],Quality of sleep and pain score,[1],significantly improved
same,Total number of tender points and muscle tightness,[1],reduction
same,Responders n,[2]; Criteria 2: Criteria 1 + decrease on THI,11
same,Tolerability,[2]; common side effects like constipation and dry mouth may be experienced,tolerated well by most subjects
same,Number of subjects Better or Much Better on GI,"[2]; of 15 subjects, FIG. 1",8 subjects
same,"Number of subjects Slightly Better, Better or Much Better on GI","[2]; of 15 subjects, FIG. 1",11 subjects
same,Number of subjects with changes on tinnitus pitch,[2]; out of 15 subjects,5 subjects
same,Remark in place of MML change (intermittent tinnitus),"[2]; subject 3, MML not possible to measure",change on intensity and less episodes
same,Trial suspension due to side effects,[2]; subject 6,Trial suspended because of side effects
same,Course of Minimum Masking Levels (MML) during the tests,"[2]; subjects 4, 8, 9, 10 and 11, FIGS. 2-6",progressive reduction
same,Effect on tinnitus severity and tinnitus loudness,[2]; tested subjects,positive effect
same,Safety of administration,[2]; tested subjects,safe to administer
